Measurements reported in PubChem BioAssay AID2060889 (Molecular Pharmacology Branch, DTP, NCI, 2025).

Test system: LG0567-F671-PDC complex spheroids viability
Experiment: Anticancer human tumor LG0567-F671-PDC patient-derived lung adenocarcinoma cell line growth inhibition [RAS]
Settings: for IC50: curve of first compound; for viability, T/C: stronger effect = lower value
Procedure, shortened: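 Tumour cells grown as complex spheroids with HUVEC endothelial cells and mesenchymal stem cells, treated with RAS pathway inhibitor combinations. Each agent spans half-log steps from near clinical Cmax, or 10 microM where Cmax is unknown.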
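Further: spheroids exposed to compound for seven days before readout.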
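Wherever IC50 is given: luminescence signal used as a proxy for viable cells.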

Compound: C=CC(=O)N1CCN(c2nc(OCC3CCCN3C)nc3c(F)c(-c4nc(N)cc(C)c4C(F)(F)F)c(Cl)cc23)C(C)C1 (configuration not stated) + CCn1c(-c2cc(N3CCN(C)CC3)cnc2C(C)OC)c2c3cc(ccc31)-c1csc(n1)CC(NC(=O)C1CC1C)C(=O)N1CCCC(N1)C(=O)OCC(C)(C)C2
- IC50 (second compound 0.000949 µM): < 3.16 nM
- IC50 (second compound 0.003 µM): < 3.16 nM
- IC50 (second compound 0.00949 µM): < 3.16 nM
- IC50 (second compound 0.03 µM): < 3.16 nM
- IC50 (second compound 0.0949 µM): < 3.16 nM
- IC50 (second compound 0.3 µM): < 3.16 nM
- viability, T/C (second compound 0.000949 µM, first compound 0.00316 µM): 9.35%
- viability, T/C (second compound 0.000949 µM, first compound 0.01 µM): 9.1%
- viability, T/C (second compound 0.000949 µM, first compound 0.0316 µM): 8%
- viability, T/C (second compound 0.000949 µM, first compound 0.1 µM): 8.66%
- viability, T/C (second compound 0.000949 µM, first compound 0.316 µM): 7.95%
- viability, T/C (second compound 0.000949 µM, first compound 1 µM): 7.17%
- viability, T/C (second compound 0.003 µM, first compound 0.00316 µM): 5.52%
- viability, T/C (second compound 0.003 µM, first compound 0.01 µM): 6.02%
- viability, T/C (second compound 0.003 µM, first compound 0.0316 µM): 5.86%
- viability, T/C (second compound 0.003 µM, first compound 0.1 µM): 7.54%
- viability, T/C (second compound 0.003 µM, first compound 0.316 µM): 7.84%
- viability, T/C (second compound 0.003 µM, first compound 1 µM): 6.72%
- viability, T/C (second compound 0.00949 µM, first compound 0.00316 µM): 5.09%
- viability, T/C (second compound 0.00949 µM, first compound 0.01 µM): 4.57%
- viability, T/C (second compound 0.00949 µM, first compound 0.0316 µM): 5.64%
- viability, T/C (second compound 0.00949 µM, first compound 0.1 µM): 4.78%
- viability, T/C (second compound 0.00949 µM, first compound 0.316 µM): 5.6%
- viability, T/C (second compound 0.00949 µM, first compound 1 µM): 4.86%
- viability, T/C (second compound 0.03 µM, first compound 0.00316 µM): 3.64%
- viability, T/C (second compound 0.03 µM, first compound 0.01 µM): 3.58%
- viability, T/C (second compound 0.03 µM, first compound 0.0316 µM): 3.59%
- viability, T/C (second compound 0.03 µM, first compound 0.1 µM): 3.48%
- viability, T/C (second compound 0.03 µM, first compound 0.316 µM): 4.15%
- viability, T/C (second compound 0.03 µM, first compound 1 µM): 3.55%
- viability, T/C (second compound 0.0949 µM, first compound 0.00316 µM): 3.37%
- viability, T/C (second compound 0.0949 µM, first compound 0.01 µM): 3.02%
- viability, T/C (second compound 0.0949 µM, first compound 0.0316 µM): 2.73%
- viability, T/C (second compound 0.0949 µM, first compound 0.1 µM): 2.71%
- viability, T/C (second compound 0.0949 µM, first compound 0.316 µM): 2.59%
- viability, T/C (second compound 0.0949 µM, first compound 1 µM): 3.04%
- viability, T/C (second compound 0.3 µM, first compound 0.00316 µM): 2.73%
- viability, T/C (second compound 0.3 µM, first compound 0.01 µM): 2.79%
- viability, T/C (second compound 0.3 µM, first compound 0.0316 µM): 2.44%
- viability, T/C (second compound 0.3 µM, first compound 0.1 µM): 2.81%
- viability, T/C (second compound 0.3 µM, first compound 0.316 µM): 2.66%
- viability, T/C (second compound 0.3 µM, first compound 1 µM): 2.96%
